Reference: patent publication US20260226049A1, “NITROGEN-CONTAINING HETEROCYCLIC COMPOUND, PREPARATION METHOD THEREFOR, AND USE THEREOF” (BIVISION PHARMACEUTICALS, INC, priority 2023, published 2026)

Experiments:
[1] = biological target: recombinant human dipeptidyl peptidase IV (DPPIV) (Homo sapiens, UniProt P27487); assay: Selective assay, protease inhibition (DPPIV); assay type: biochemical; conditions: substrate Gly-Pro-AMC; read-out: pIC50 (DPPIV) (converted)
Description: (§1) The specificity of the synthesized compounds against recombinant human dipeptidyl peptidase IV (DPPIV), fibroblast activation protein (FAP), or prolyl oligopeptidase (PREP) was expressed by their half-maximal inhibitory concentration (IC50) against the proteases.
(§2) 1) The synthesized compound was dissolved in DMSO to a final concentration of 100 mM.
b) For DPPIV assay: The test compound was diluted to a 1 mM solution using a buffer of 25 mM Tris, 250 mM NaCl at pH 7.5.
(§3) 2) The prepared 1 mM test compound solution was serially diluted (1:10) into a row of a 96-well plate using the corresponding buffer mentioned above.
(§4) 3) The substrate was prepared as a DMSO stock solution (FAP and PREP: 2.5 mM Z-Gly-Pro-AMC (VWR, Cat. No. I-1145.0050BA) in DMSO; DPPIV: 100 mM Gly-Pro-AMC (VWR, Cat. No. 100042-646) in DMSO), and subsequently the substrate stock solution was diluted 20-fold using the corresponding buffer mentioned above.
(§5) 4) The enzyme was diluted into the appropriate assay buffer. The final concentrations of DPPIV, FAP, and PREP were […], respectively. To each required well in columns 2-10, 180 μL was added separately. Column 1 (A, B, C) was prepared with 200 μL of the appropriate assay buffer as a control. […]
(§6) 7) Fluorescence was measured at λex: 380, λem: 460. […]

[2] = system: HT1080 cell line with high FAP expression; assay: Therapeutic experiment of ^177Lu-labeled compounds in tumor-bearing mice; assay type: in vivo, Balb/c Nude mice; conditions: ^177Lu-labeled compound
Outline: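 HT1080 (high FAP) xenografts in Balb/c nude mice, 5 per group, dosed with 177Lu-labeled compounds versus saline control; tumor volume and body weight tracked. TGI(TV) and T/C% derived from mean group tumor volumes; two-way ANOVA with Fisher's LSD, p<0.05.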

[3] = biological target: T1, recombinant human prolyl oligopeptidase (PREP) (Homo sapiens, UniProt P48147); assay: Selective assay, protease inhibition (PREP); assay type: biochemical; conditions: substrate Z-Gly-Pro-AMC
T1 sequence (P48147 1-710): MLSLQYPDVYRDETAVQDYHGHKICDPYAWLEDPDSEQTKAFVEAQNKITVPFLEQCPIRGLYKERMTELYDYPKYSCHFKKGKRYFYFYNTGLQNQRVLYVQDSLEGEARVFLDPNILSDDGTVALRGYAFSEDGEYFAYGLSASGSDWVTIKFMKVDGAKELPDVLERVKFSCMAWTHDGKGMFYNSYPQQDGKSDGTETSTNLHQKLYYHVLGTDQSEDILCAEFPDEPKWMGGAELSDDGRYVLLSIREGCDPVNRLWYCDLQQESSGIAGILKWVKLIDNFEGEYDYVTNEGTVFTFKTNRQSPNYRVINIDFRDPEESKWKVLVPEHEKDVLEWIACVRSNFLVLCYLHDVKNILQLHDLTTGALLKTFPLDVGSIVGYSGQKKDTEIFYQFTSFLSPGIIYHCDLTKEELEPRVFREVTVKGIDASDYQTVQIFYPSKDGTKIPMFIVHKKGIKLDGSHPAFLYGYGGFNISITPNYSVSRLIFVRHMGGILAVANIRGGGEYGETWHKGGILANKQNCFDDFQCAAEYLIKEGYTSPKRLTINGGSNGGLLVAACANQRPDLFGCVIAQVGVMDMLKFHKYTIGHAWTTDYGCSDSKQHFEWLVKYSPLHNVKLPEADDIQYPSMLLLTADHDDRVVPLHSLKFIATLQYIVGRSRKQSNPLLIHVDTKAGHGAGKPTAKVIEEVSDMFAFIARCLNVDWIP
Description: as §1, §2
c) For PREP assay: The test compound was diluted to a 1 mM solution using a 140 mM NaCl buffer at pH 8.0.
as §3, §4
as §5, with “control. Column 1 (D, E, F, G, H) was prepared using 20 μL of appropriate assay buffer and 180 μL of enzyme as an inhibitor-free control.” for “control.”
as §6

Chain of recombinant human dipeptidyl peptidase IV (DPPIV) (P27487 whole entry): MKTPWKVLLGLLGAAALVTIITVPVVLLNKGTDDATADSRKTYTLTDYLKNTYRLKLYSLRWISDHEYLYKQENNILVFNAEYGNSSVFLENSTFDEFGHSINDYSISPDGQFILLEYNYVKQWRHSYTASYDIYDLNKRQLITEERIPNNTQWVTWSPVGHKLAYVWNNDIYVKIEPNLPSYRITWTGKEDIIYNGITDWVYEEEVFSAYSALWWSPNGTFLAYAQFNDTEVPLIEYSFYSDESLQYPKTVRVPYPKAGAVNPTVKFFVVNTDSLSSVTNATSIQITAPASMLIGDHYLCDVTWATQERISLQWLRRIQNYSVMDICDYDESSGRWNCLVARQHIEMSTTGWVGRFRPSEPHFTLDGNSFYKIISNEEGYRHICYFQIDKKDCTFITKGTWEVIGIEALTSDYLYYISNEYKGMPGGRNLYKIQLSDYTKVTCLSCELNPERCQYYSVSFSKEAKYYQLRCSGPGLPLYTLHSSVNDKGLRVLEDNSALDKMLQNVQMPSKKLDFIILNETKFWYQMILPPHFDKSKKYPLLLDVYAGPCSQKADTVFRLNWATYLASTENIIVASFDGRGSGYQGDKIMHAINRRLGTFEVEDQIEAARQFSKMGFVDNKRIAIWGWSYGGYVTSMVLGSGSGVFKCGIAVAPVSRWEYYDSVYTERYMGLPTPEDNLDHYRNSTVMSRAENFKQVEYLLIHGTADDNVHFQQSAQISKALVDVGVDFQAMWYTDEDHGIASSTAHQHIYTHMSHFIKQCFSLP

IC50 [1]: > 1000 nM | IC50 [3]: > 1000 nM
Compound: N#C[C@@H]1CC(F)(F)CN1C(=O)CNC(=O)c1cccc2c1CCN(C(=O)CCC(=O)NCCNC(=O)CCC(C(=O)O)N1CCN(CC(=O)O)CCN(CC(=O)O)CCN(CC(=O)O)CC1)C2 (stereo partly drawn) [JHH5]
therapeutic effects in mouse tumor model [2]: dose-dependent therapeutic effects
